Values of other authors as cited in patent US20020051978A1, “Methods and compositions for the identification, assessment, prevention and therapy of human cancers” (priority 2000, published 2002).
Read-outs that look alike come from different tables or passages of the source.

Tested on: 60 cancer cell lines (NCI 60 cancer cell line series)
Conditions: cited from earlier work

Measured: -Log (GI50)

O=C(O)CCCc1ccc(N(CCCl)CCCl)cc1 [Chlorambucil]
4.1: Colon SW-620 (CL4009) | Leukemia RPMI-8226(I) (CL7010) | Melanoma SK-MEL-5 (CL10007) | Melanoma UACC-257 (CL10021) | NSCLC NCI-H226 CL1013 | Ovarian OVCAR-8 CL6005
4.0: Breast BT-549 (CL5013) | CNS SNB-19 (CL12002) | Colon HCC-2998 (CL4002) | Colon HCT-15 CL4015 | Colon HCT-116 (CL4003) | Melanoma SK-MEL-28 (CL10008) | Ovarian OVCAR-3 CL6001 | Ovarian OVCAR-5 CL6003 | Ovarian SK-OV-3 CL6011 | Prostate PC-3(I) CL11001
3.9: Breast MDA-MB-435 (CL5011) | Breast MDA-N CL5012 | Colon COLO-250 CL4010 | Colon HT29(I) CL4001 | Leukemia K562(I) CL7005 | Ovarian IGROV1 CL6010 | Ovarian OVCAR-4 CL6002 | Renal A498 CL9013
4.3: Breast MCF7/ADRr (CL5002) | Breast T-47D (CL5014) | CNS SNB-75(I) CL12005
4.2: Melanoma M14 (CL10014) | Melanoma MALME-3M CL10002 | NSCLC A549/ATCC (CL1004) | NSCLC HOP-92 (CL1029) | Prostate DU-145 CL11003 | Renal UO-31 CL9004
4.7: Melanoma UACC-62 (CL10020)
4.6: CNS SF-539 CL12016 | NCSLC NCI-H522 CL1003 | NSCLC NCI-H23(I) CL1001 | Renal RXF-393 CL9016
4.4: CNS SF-295 CL12015 | CNS U251(I) CL12009 | Melanoma LOX IMVI CL10001 | NSCLC HOP-62 (CL1026)
4.8: Renal ACHN CL9023 | Renal CAKI-1 CL9015
3.7: Breast HS-578T CL5006 | NSCLC NCI-H332M CL1017
5.3: Leukemia MOLT-4 (CL7006)
4.5: Breast MCF7(I) (CL5001) | CNS SF-268 CL12014 | Renal 786-O CL9018 | Renal SN12C CL9008
5.2: Leukemia CCRF-CEM(I) (CL7003) | Leukemia SR CL7019
5.1: Leukemia HL-60(I) (CL7008)
3.8: Breast MDA-MB-231 CL5005 | Colon KM12 (CL4017) | Melanoma SK-MEL-2 (CL10005) | NSCLC EKVX (CL1008) | Renal TK10 CL9024
4.9: NSCLC NCI-H460 CL1021

CS(=O)(=O)OCCCCOS(C)(=O)=O [Busulfan]
3.6: Breast BT-549 (CL5013) | Breast HS-578T CL5006 | Breast MCF7/ADRr (CL5002) | Breast MDA-MB-231 CL5005 | Breast MDA-MB-435 (CL5011) | Breast T-47D (CL5014) | CNS SF-539 CL12016 | CNS SNB-19 (CL12002) | CNS U251(I) CL12009 | Colon COLO-250 CL4010 | Colon HCT-15 CL4015 | Colon HCT-116 (CL4003) | Colon HT29(I) CL4001 | Colon KM12 (CL4017) | Leukemia K562(I) CL7005 | Leukemia RPMI-8226(I) (CL7010) | Melanoma M14 (CL10014) | Melanoma MALME-3M CL10002 | Melanoma SK-MEL-2 (CL10005) | Melanoma SK-MEL-5 (CL10007) | NCSLC NCI-H522 CL1003 | NSCLC NCI-H23(I) CL1001 | NSCLC NCI-H332M CL1017 | Ovarian IGROV1 CL6010 | Ovarian OVCAR-5 CL6003 | Ovarian OVCAR-8 CL6005 | Ovarian SK-OV-3 CL6011 | Prostate PC-3(I) CL11001 | Renal 786-O CL9018 | Renal A498 CL9013 | Renal SN12C CL9008 | Renal TK10 CL9024 | Renal UO-31 CL9004
4.0: NSCLC NCI-H460 CL1021
3.9: Leukemia MOLT-4 (CL7006) | Renal CAKI-1 CL9015 | Renal RXF-393 CL9016
3.8: CNS SF-268 CL12014 | CNS SNB-75(I) CL12005 | Leukemia CCRF-CEM(I) (CL7003) | Leukemia HL-60(I) (CL7008) | NSCLC HOP-92 (CL1029) | Renal ACHN CL9023
4.1: Leukemia SR CL7019
3.7: Breast MCF7(I) (CL5001) | Breast MDA-N CL5012 | CNS SF-295 CL12015 | Colon HCC-2998 (CL4002) | Colon SW-620 (CL4009) | Melanoma LOX IMVI CL10001 | Melanoma SK-MEL-28 (CL10008) | Melanoma UACC-62 (CL10020) | Melanoma UACC-257 (CL10021) | NSCLC A549/ATCC (CL1004) | NSCLC EKVX (CL1008) | NSCLC HOP-62 (CL1026) | NSCLC NCI-H226 CL1013 | Ovarian OVCAR-3 CL6001 | Ovarian OVCAR-4 CL6002 | Prostate DU-145 CL11003
